Data on 2 compounds can be found in patent publication US20040247696A1, “Methods of using electron active compounds for managing conditions afflicting mammals” (priority 2001, published 2004).

In series [1] the test system is coliform. Briefly: AOAC culture test, coliform-contaminated water. The class given is cell-based. As to conditions: about 2 PPM XeF2 + about 20 PPM KPS, pH about 7, 37.4 cfu/mL. The method, then:
These and other aspects of the present invention may be more fully understood with reference to the following examples, which are merely illustrative of the preferred embodiments of the present invention, and are not to be construed as limiting the invention, the scope of which is defined by the appended claims. Unless otherwise indicated, antimicrobial evaluations of the various fluorinator compounds tested were performed versus control samples in cultures in accordance with the protocol as set forth in AOAC (15th) 1990:965:13 at colony densities indicated in the examples.
Contaminated water was prepared and measured to have AOAC coliform counts averaging 37.4 colony forming units per milliliter (cfu/mL). The water was treated by first adding crystal potassium monopersulfate (KPS) stabilizer, commercially available from E.I. DuPont de Nemours & Co. Corp. as OXONE®, and xenon difluoride (XeF2). The concentration in solution of the KPS and XeF2 was about 20 PPM and about 2 PPM respectively, and the pH of the treated solution was about 7.

Series [2] has as its system salmonella. As to the kind of experiment: AOAC culture test, salmonella-contaminated aqueous solutions. In kind it is cell-based. As to conditions: ten minutes exposure. The protocol: Unless otherwise indicated, antimicrobial evaluations of the various fluorinator compounds tested were performed versus control samples in cultures in accordance with the protocol as set forth in AOAC (15th) 1990:965:13 at colony densities indicated in the examples.
Aqueous solutions were prepared having a salmonella contamination at a cell density of about 500,000 cfu/mL. Two solutions of XeF2 were prepared: one as a 1% solution in 85% phosphoric acid stabilizer, and a second solution containing no stabilizer. The materials were cultured versus controls at concentrations of about 2 ppm and about 4 ppm XeF2 and at a pH of about 9.

For series [3] the following is noted: animals not prone to silver allergies. An excerpt:
Preferred routes of administration include topically and application to mucosa. Application can be made, for example, digitally or using a suitable applicator.

For the compound `F[Xe]F` [XeF2, xenon difluoride], the coliform inhibition entry is “about 73%” in series [1] (5 minutes exposure) and “about 77%” in series [1] (10 minutes exposure). Further, the salmonella inhibition result in series [2] (about 2 ppm XeF2, pH about 9, about 500,000 cfu/mL) was “about 13.2%”; in series [2] (about 4 ppm XeF2, pH about 9, about 500,000 cfu/mL) it was “about 96.4%”.

For `[Ag+].[Ag+].[Ag+].[Ag+].[O-2].[O-2].[O-2].[O-2]` [Ag4O4, tetrasilver tetroxide], the “Ill effects or irritation on application to the skin” value in series [3] is given as “without any ill effects or evidence of irritation”.
